This is an account of results in US9187497B2, “Substituted pyrido[3,2-e]pyrrolo[1,2-a]pyrazines as inhibitors of poly(ADP-ribose)polymerase (PARP)” (Takeda Phamaceutical Company Limited, priority 2009, dated 2015).

The target in experiment [1] is T1, PARP (Homo sapiens, UniProt P09874).
T1 construct: purchased Trevigen 4684-096-01 (enzyme); kit 4684-096-K HT
The experiment is described as follows: PARP ELISA colorimetric assay of inhibition of PARP catalytic activity (IC50). In kind it is biochemical. The conditions noted are these: pIC50=-log(IC50), IC50 in molar concentration; ELISA-based PARP kit, 10 minutes of catalysis. The procedure:
Inhibition Constant (IC50) from PARP ELISA
Inhibition of PARP catalytic activity was determined by use of an ELISA-based colorimetric PARP/Apoptosis Assay kit (part number 4684-096-K HT, Trevigen). To each histone coated well in the 96-well plate supplied by the manufacturer (part number 4677-096-P) is added 39 μl of PARP buffer (part number 4671-096-02) and 1 μl of test compound dissolved in DMSO (diluted serially 3-fold 11 times). After mixing, 5 μl of 0.1 nM PARP (part number 4684-096-01) is added and the solution allowed to stand at ambient temperature for 10 minutes. PARP catalysis is initiated with the addition of 5 μl of 100 μM β-nicotinamide adenine dinucleotide (NAD+) (part number 4684-096-02) with activated DNA (part number 4671-096-06). After 10 minutes of catalysis the reaction is quenched by solvent aspiration followed by irrigation of the assay wells 4 times with phosphate buffered saline (PBS) containing 0.1% t-Octylphenoxypolyethoxyethanol (Triton® X-100). Mouse Anti-poly ADP ribose (PAR) monoclonal antibody, goat antimouse immunoglobulin G (IgG)-horse radish peroxidase (HRP) conjugate and HRP substrate are added according to the manufacture's specifications to generate a colorimetric signal proportional to PARP catalytic activity. An IC50 for the test compound is calculated from the equation Absorbance=(Amax−background)/(1+([cmpd]/IC50)^n)+background fit to the 12 point test compound concentration gradient via nonlinear least squares.
A general note: An ELISA detects its analyte on a solid surface through an enzyme-linked reagent.

Experiment [2] concerns Jurkat cell line. The experiment is described as follows: PARP cellular chemopotentiation assay (MTS cell viability with and without TMZ). As to conditions: ratio of EC50 for inhibition of cell viability without and with 100 μM TMZ; Jurkat cells, 96 hours of treatment. Format: cell-based. The essentials:
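Jurkat cells, 10,000/well, pre-cultured 24 h, then treated 96 h with serial compound dilutions (0.5% DMSO) with or without 100 μM TMZ. Viability by MTS conversion (OD490), normalized to DMSO controls; EC50 from curve fits, PF50 = EC50 without TMZ / EC50 with TMZ.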

Molecules are shown by their SMILES. A value given as a limit tells only on which side of the number the result lay.

T1 sequence (P09874 whole entry): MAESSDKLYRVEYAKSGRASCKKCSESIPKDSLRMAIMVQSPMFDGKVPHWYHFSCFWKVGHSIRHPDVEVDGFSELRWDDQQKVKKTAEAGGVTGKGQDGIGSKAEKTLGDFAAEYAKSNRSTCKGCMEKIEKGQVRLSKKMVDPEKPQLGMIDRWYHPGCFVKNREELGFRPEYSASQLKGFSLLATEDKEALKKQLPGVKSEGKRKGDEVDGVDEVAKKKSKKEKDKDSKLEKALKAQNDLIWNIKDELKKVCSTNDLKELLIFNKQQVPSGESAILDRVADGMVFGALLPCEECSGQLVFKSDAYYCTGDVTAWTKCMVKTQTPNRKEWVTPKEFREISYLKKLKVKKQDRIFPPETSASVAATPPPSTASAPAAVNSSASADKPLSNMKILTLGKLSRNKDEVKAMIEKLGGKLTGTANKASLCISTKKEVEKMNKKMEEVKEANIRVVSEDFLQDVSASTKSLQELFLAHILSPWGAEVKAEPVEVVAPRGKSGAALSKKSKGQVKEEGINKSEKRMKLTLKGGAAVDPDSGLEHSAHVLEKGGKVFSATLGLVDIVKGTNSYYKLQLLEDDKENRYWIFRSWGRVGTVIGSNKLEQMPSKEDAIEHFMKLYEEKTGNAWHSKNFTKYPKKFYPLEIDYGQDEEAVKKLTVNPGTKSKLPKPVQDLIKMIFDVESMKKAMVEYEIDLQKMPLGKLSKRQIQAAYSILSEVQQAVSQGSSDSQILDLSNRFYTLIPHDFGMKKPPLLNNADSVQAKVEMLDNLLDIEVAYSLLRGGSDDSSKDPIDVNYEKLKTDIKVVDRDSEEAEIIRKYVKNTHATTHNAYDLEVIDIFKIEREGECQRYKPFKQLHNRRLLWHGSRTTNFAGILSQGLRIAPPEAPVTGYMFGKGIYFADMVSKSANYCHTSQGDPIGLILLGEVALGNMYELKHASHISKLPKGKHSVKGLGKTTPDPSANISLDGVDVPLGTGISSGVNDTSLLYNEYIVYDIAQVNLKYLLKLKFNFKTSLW

`Cc1cccc(N2CCN(Cc3cnc4c(c3)NC(=O)[C@@H]3CCCN43)CC2)c1` [Compound 29, (S)-3-((4-m-tolylpiperazin-1-yl)methyl)-6a,7,8,9-tetrahydropyrido[3,2-e]pyrrolo[1,2-a]pyrazin-6(5H)-one]: the IC50 (usually the midpoint of a concentration-inhibition curve) in experiment [1] was no less than 50.1 nM. In addition, the PF50 in experiment [2] is greater than 500.

In experiment [1], `O=C1Nc2cc(CN3CCN(c4ccc(Br)cc4)CC3)cnc2N2CCC[C@@H]12` [Compound 37, (S)-3-((4-(4-bromophenyl)piperazin-1-yl)methyl)-6a,7,8,9-tetrahydropyrido[3,2-e]pyrrolo[1,2-a]pyrazin-6(5H)-one] gave an IC50 of no less than 50.1 nM. Further, the PF50 in experiment [2] is greater than 2000.

In experiment [1], `O=C1Nc2cc(CN3CCN(c4ccc(Cl)cn4)CC3)cnc2N2CCC[C@@H]12` [Compound 42, (S)-3-((4-(5-chloropyridin-2-yl)piperazin-1-yl)methyl)-6a,7,8,9-tetrahydropyrido[3,2-e]pyrrolo[1,2-a]pyrazin-6(5H)-one] gave an IC50 of no less than 50.1 nM. Moreover, the PF50 in experiment [2] is given as greater than 500.

Take `COC(=O)c1ccc(N2CCN(Cc3cnc4c(c3)NC(=O)[C@@H]3CCCN43)CC2)cc1` [Compound 45, (S)-methyl 4-(4-((6-oxo-5,6,6a,7,8,9-hexahydropyrido[3,2-e]pyrrolo[1,2-a]pyrazin-3-yl)methyl)piperazin-1-yl)benzoate]: the IC50 in experiment [1] is 15.8 to 39.8 nM. Also, the PF50 in experiment [2] is greater than 10.

`O=C1Nc2cc(CN3CCN(c4ccc(Cl)c(F)c4)CC3)cnc2N2CCC[C@@H]12` [Compound 47, (S)-3-((4-(4-chloro-3-fluorophenyl)piperazin-1-yl)methyl)-6a,7,8,9-tetrahydropyrido[3,2-e]pyrrolo[1,2-a]pyrazin-6(5H)-one] gave an IC50 in experiment [1] of no less than 50.1 nM. Moreover, the PF50 in experiment [2] is listed as greater than 10.

`O=C1Nc2cc(CN3CC=C(c4ccc(Cl)cc4)CC3)cnc2N2CCCC[C@@H]12` [Compound 68, (S)-3-((4-(4-chlorophenyl)-5,6-dihydropyridin-1(2H)-yl)methyl)-7,8,9,10-tetrahydro-5H-dipyrido[1,2-a:3′,2′-e]pyrazin-6(6aH)-one]: the IC50 in experiment [1] is no more than 12.6 nM. The PF50 in experiment [2] is reported as greater than 5000.

The compound `O=C1Nc2cc(CN3CCN(c4ccc(Cl)cc4)CC3)cnc2N2CCCC[C@@H]12` [Compound 69, (S)-3-((4-(4-chlorophenyl)piperazin-1-yl)methyl)-7,8,9,10-tetrahydro-5H-dipyrido[1,2-a:3′,2′-e]pyrazin-6(6aH)-one] showed an IC50 in experiment [1] of no more than 12.6 nM. Further, the PF50 in experiment [2] is given as greater than 10.

With `O=C1Nc2cc(CN3CCC(c4ccc(Cl)cc4)CC3)cnc2N2CCCC[C@@H]12` [Compound 70, (S)-3-((4-(4-chlorophenyl)piperidin-1-yl)methyl)-7,8,9,10-tetrahydro-5H-dipyrido[1,2-a:3′,2′-e]pyrazin-6(6aH)-one], the IC50 in experiment [1] is no less than 50.1 nM. In experiment [2], the PF50 result is “≧0”.

The compound `N#Cc1ccc(N2CCN(Cc3cnc4c(c3)NC(=O)[C@@H]3CCCCN43)CC2)nc1` [Compound 72, (S)-6-(4-((6-oxo-6,6a,7,8,9,10-hexahydro-5H-dipyrido[1,2-a:3′,2′-e]pyrazin-3-yl)methyl)piperazin-1-yl)nicotinonitrile] showed an IC50 in experiment [1] of no more than 12.6 nM. Moreover, the PF50 in experiment [2] is greater than 500.

Compound `CNC(=O)c1ccc(N2CCN(Cc3cnc4c(c3)NC(=O)[C@@H]3CCCCN43)CC2)cc1` [Compound 74, (S)—N-methyl-4-(4-((6-oxo-6,6a,7,8,9,10-hexahydro-5H-dipyrido[1,2-a:3′,2′-e]pyrazin-3-yl)methyl)piperazin-1-yl)benzamide] showed an IC50 in experiment [1] of no more than 12.6 nM. For the same compound, the PF50 in experiment [2] is reported as greater than 10.

In turn, `O=C(NC1CC1)c1ccc(N2CCN(Cc3cnc4c(c3)NC(=O)[C@@H]3CCCCN43)CC2)cc1` [Compound 75, (S)—N-cyclopropyl-4-(4-((6-oxo-6,6a,7,8,9,10-hexahydro-5H-dipyrido[1,2-a:3′,2′-e]pyrazin-3-yl)methyl)piperazin-1-yl)benzamide] gave an IC50 in experiment [1] of 15.8 to 39.8 nM. In experiment [2], the PF50 is recorded as greater than 500.

`CNC(=O)c1ccc(N2CCN(Cc3cnc4c(c3)NC(=O)[C@@H]3CCCCN43)CC2)nc1` [Compound 77, (S)—N-methyl-6-(4-((6-oxo-6,6a,7,8,9,10-hexahydro-5H-dipyrido[1,2-a:3′,2′-e]pyrazin-3-yl)methyl)piperazin-1-yl)nicotinamide] had an IC50 in experiment [1] of 15.8 to 39.8 nM. Besides, in experiment [2], the PF50 is greater than 10.

In experiment [1], `O=C1Nc2cc(CN3CCN(c4ccc(Cl)cc4)CC3)cnc2N2CCSCC12` (stereo not drawn) [Compound 87, 3-((4-(4-chlorophenyl)piperazin-1-yl)methyl)-6a,7,9,10-tetrahydropyrido[3,2-e][1,4]thiazino[4,3-a]pyrazin-6(5H)-one] showed a 50% inhibitory concentration (IC50) of 15.8 to 39.8 nM. For the same compound, in experiment [2], the PF50 is given as greater than 10.

As for `N#Cc1ccc(N2CCN(Cc3cnc4c(c3)NC(=O)[C@@H]3CSCCN43)CC2)cc1` [Compound 90, (R)-4-(4-((6-oxo-5,6,6a,7,9,10-hexahydropyrido[3,2-e][1,4]thiazino[4,3-a]pyrazin-3-yl)methyl)piperazin-1-yl)benzonitrile], the half-maximal inhibitory concentration (IC50) in experiment [1] is no more than 12.6 nM. In experiment [2], the PF50 is recorded as greater than 10.

The compound `CC(C)N1CC(=O)Nc2cc(CN3CC=C(c4ccc(Cl)cc4)CC3)cnc21` [Compound 94, 7-((4-(4-chlorophenyl)-5,6-dihydropyridin-1(2H)-yl)methyl)-4-isopropyl-3,4-dihydropyrido[2,3-b]pyrazin-2(1H)-one] showed an IC50 in experiment [1] of no less than 50.1 nM. The PF50 entry in experiment [2] is recorded as “≧0”.

On to `CC(C)N1CC(=O)Nc2cc(CN3CCN(c4ccc(Cl)cc4)CC3)cnc21` [Compound 95, 7-((4-(4-chlorophenyl)piperazin-1-yl)methyl)-4-isopropyl-3,4-dihydropyrido[2,3-b]pyrazin-2(1H)-one], for which the IC50 in experiment [1] was no less than 50.1 nM. Also, the PF50 entry in experiment [2] was “≧0”.

Take `N#Cc1ccc(N2CCN(Cc3cnc4c(c3)NC(=O)[C@@H]3CCN43)CC2)cc1` [Compound 102, (S)-4-(4-((6-oxo-6,6a,7,8-tetrahydro-5H-azeto[1,2-a]pyrido[3,2-e]pyrazin-3-yl)methyl)piperazin-1-yl)benzonitrile]: the IC50 in experiment [1] was 15.8 to 39.8 nM. For the same compound, in experiment [2], the PF50 result is “≧0”.

The compound `N#Cc1ccc(N2CCN(Cc3cnc4c(c3)NC(=O)CC3CCCN43)CC2)cc1` (stereo not drawn) [Compound 103, 4-(4-((6-oxo-6,7,7a,8,9,10-hexahydro-5H-pyrido[3,2-b]pyrrolo[1,2-d][1,4]diazepin-3-yl)methyl)piperazin-1-yl)benzonitrile] gave an IC50 in experiment [1] of 15.8 to 39.8 nM. In addition, the PF50 entry in experiment [2] is recorded as “≧0”.

Compound `O=C1CC2CCCN2c2ncc(CN3CCN(c4ccc(Cl)cc4)CC3)cc2N1` (stereo not drawn) [Compound 104, 3-((4-(4-chlorophenyl)piperazin-1-yl)methyl)-7a,8,9,10-tetrahydro-5H-pyrido[3,2-b]pyrrolo[1,2-d][1,4]diazepin-6(7H)-one] gave a concentration for half-maximal inhibition (IC50) in experiment [1] of no less than 50.1 nM. Besides, the PF50 result in experiment [2] is reported as “≧0”.

Take `C[C@H]1CN(c2ccc(C#N)cc2)CCN1Cc1cnc2c(c1)NC(=O)[C@@H]1CSCCN21` [Compound 105, 4-((S)-3-methyl-4-(((R)-6-oxo-5,6,6a,7,9,10-hexahydropyrido[3,2-e][1,4]thiazino[4,3-a]pyrazin-3-yl)methyl)piperazin-1-yl)benzonitrile]: the half-maximal inhibitory concentration (IC50) in experiment [1] is 15.8 to 39.8 nM. Also, in experiment [2], the PF50 was greater than 10.

In experiment [1], `CCNC(=O)c1ccc(N2CCN(Cc3cnc4c(c3)NC(=O)[C@@H]3CSCCN43)CC2)c(F)c1` [Compound 106, (R)—N-ethyl-3-fluoro-4-(4-((6-oxo-5,6,6a,7,9,10-hexahydropyrido[3,2-e][1,4]thiazino[4,3-a]pyrazin-3-yl)methyl)piperazin-1-yl)benzamide] gave an IC50 of no more than 12.6 nM. Besides, in experiment [2], the PF50 was greater than 5000.

In experiment [1], `CCNC(=O)c1ccc(N2CCN(Cc3cnc4c(c3)NC(=O)[C@@H]3CSCCN43)CC2)c(Cl)c1` [Compound 107, (R)-3-chloro-N-ethyl-4-(4-((6-oxo-5,6,6a,7,9,10-hexahydropyrido[3,2-e][1,4]thiazino[4,3-a]pyrazin-3-yl)methyl)piperazin-1-yl)benzamide] had an IC50 of 15.8 to 39.8 nM. The PF50 in experiment [2] is greater than 2000.

`CNC(=O)c1ccc(N2CCN(Cc3cnc4c(c3)NC(=O)[C@@H]3CSCCN43)CC2)c(Cl)c1` [Compound 108, (R)-3-chloro-N-methyl-4-(4-((6-oxo-5,6,6a,7,9,10-hexahydropyrido[3,2-e][1,4]thiazino[4,3-a]pyrazin-3-yl)methyl)piperazin-1-yl)benzamide] had an IC50 in experiment [1] of no more than 12.6 nM. Besides, in experiment [2], the PF50 is given as greater than 500.

`CCNC(=O)c1ccc(N2CCN(Cc3cnc4c(c3)NC(=O)[C@@H]3CCCCN43)CC2)c(F)c1` [Compound 109, (S)—N-ethyl-3-fluoro-4-(4-((6-oxo-6,6a,7,8,9,10-hexahydro-5H-dipyrido[1,2-a:3′,2′-e]pyrazin-3-yl)methyl)piperazin-1-yl)benzamide] gave an IC50 in experiment [1] of 15.8 to 39.8 nM. Also, the PF50 in experiment [2] was greater than 2000.
